In patent publication US5563151A, “Amino acid derivatives as paf-receptor antagonists” (British Biotech Pharmaceuticals limited, priority 1992, dated 1996):

Legend:
[1] = biological target: T1, PAF receptor (human platelet plasma membrane) (Homo sapiens, UniProt P25105); experiment: Inhibition of [^3 H]-PAF Receptor Binding; settings: human platelet plasma membranes; [^3 H]-PAF 0.5 nM; 0° C., 1 hour, pH 7.0
T1 construct: Platelet concentrates were obtained from a hospital blood bank; from tissue; host or cells: human platelets (hospital blood bank concentrates), lysed platelet membranes
T1 sequence (P25105 whole entry): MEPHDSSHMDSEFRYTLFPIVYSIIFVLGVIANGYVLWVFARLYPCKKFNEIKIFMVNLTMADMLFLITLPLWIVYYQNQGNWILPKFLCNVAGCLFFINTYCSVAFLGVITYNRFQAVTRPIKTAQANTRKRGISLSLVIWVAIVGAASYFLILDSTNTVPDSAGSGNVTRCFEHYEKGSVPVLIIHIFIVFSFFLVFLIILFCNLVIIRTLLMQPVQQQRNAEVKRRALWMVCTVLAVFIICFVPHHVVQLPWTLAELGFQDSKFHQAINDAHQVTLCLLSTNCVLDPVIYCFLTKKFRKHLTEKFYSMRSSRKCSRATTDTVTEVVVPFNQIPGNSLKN
Description: (§1) Compounds of general formula I inhibit PAF-induced functions in both the cellular and tissue levels by changing the PAF binding to its specific receptor site. The ability of compounds of general formula I to inhibit the binding of PAF to its specific receptor binding site on human platelet plasma membranes was measured according to Example 150. The ability of compounds of general formula I to reverse the hypotension caused by an infusion of PAF in rats was measured according Example 151.
Inhibition of [^3 H]-PAF Receptor Binding
The inhibition of [^3 H]-PAF binding to human platelet plasma membrane by compounds of general formula I was determined by isotopic labelling and filtration techniques. Platelet concentrates were obtained from a hospital blood bank. These platelet concentrates (500-2500 ml.) were centrifuged at 800 rpm for 10 minutes in a SORVALL RC3B centrifuge to remove the red blood cells present. (The word SORVALL is a trade mark.) The supernatant was subsequently centrifuged at 3,000 rpm in a SORVALL RC3B centrifuge to pellet the platelets present. The platelet rich pellets were resuspended in a minimum volume of buffer (150 mM NaCl, 10 mM Tris, 2 mM EDTA, pH 7.5) and layered onto Ficoll-Paque gradients, 9 ml platelet concentrate to 2 ml Ficoll, and centrifuged at 1,900 rpm for 15 minutes in a SORVALL RT6000 centrifuge. This step removes the residual red blood cells and other nonspecific material such as lymphocytes from the preparation. The platelets which form a band between the plasma and the Ficoll were removed, resuspended in the above buffer and centrifuged at 3,000 rpm for 10 minutes in a SORVALL RT6000 centrifuge. […]
The assay was conducted by preparing a series of Tris-buffered solutions of the selected antagonist of predetermined concentrations. […] Each washed residue was dried under vacuum on a sampling manifold and placed into vials containing 20 ml of OPTIPHASE MP scintillation fluid and the radioactivity counted in a liquid scintillation counter. […]

PAF-induced hypotension = experiment: Inhibition of PAF-Induced Hypotension in the Rat; type: in vivo, rat (male Sprague-Dawley); settings: iv, i.v. bolus, PAF 100 ng/kg/min i.v. infusion, anaesthetised rats, read-out: ED50 (dose to cause a 50% reversal of the hypotensive PAF response)
Description: as §1
Inhibition of PAF-Induced Hypotension in the Rat
Male Sprague-Dawley rats (300-350 g) were anaesthetised with a mixture of sodium pentobarbitone, 22.5 mg/kg and thiopental 62.5 mg/kg. Through a midline incision in the neck, the trachea was cannulated and the animals breathed spontaneously. A carotid artery was cannulated for the measurement of blood pressure and this signal was used to trigger a rate meter to measure heart rate. Both jugular veins were cannulated: one for the infusion of PAF and the other for the bolus administration of test compounds.
PAF, 100 ng/kg/min was infused i.v. until a sustained fall in mean blood pressure of 50 mmHg was achieved. […] The peak of this reversal was measured and the dose to cause a 50% reversal of the hypotensive PAF response (ED50) calculated by straight line interpolation and the results are presented in Table 2.

SMILES | IC50 [1] | ED50 (PAF-induced hypotension)
CCOC(=O)[C@H](CC(C)C)NC(=O)CCCCCn1c(C)nc2cnccc21 [Example 1B, N-6-(2-methylimidazo[4,5-c]pyridin-1-yl)hexanoyl-L-leucine ethyl ester] | 15 nM | 
CCOC(=O)[C@H](CC(C)C)NC(=O)CCCn1c(C)nc2cnccc21 [Example 11B, N-4-(2-methylimidazo[4,5-c]pyridin-1-yl)butanoyl-L-leucine ethyl ester] | 3 nM | 0.0305 mg/kg
CCOC(=O)[C@H](CC(C)C)NC(=O)CCCCCCCCCCn1c(C)nc2cnccc21 [Example 98B, N-11-(2-methylimidazo[4,5-c]pyridin-1-yl)undecanoyl-L-leucine ethyl ester] | 1 nM | 
CCOC[C@H](CC(C)C)NS(=O)(=O)CCCn1c(C)nc2cnccc21 [Example 33B, N-4-(2-methylimidazo[4,5-c]pyridin-1-yl)propylsulphonyl-L-leucinyl ethyl ether] |  | 0.0018 mg/kg
